The values below come from ChEMBL document CHEMBL5537154, “Smart glypican-3-targeting peptide-chlorin e6 conjugates for targeted photodynamic therapy of hepatocellular carcinoma” (Eur J Med Chem, 2024).

Peptide text beside a SMILES is read from it.

Series [1] has as its system Huh-7. As to the kind of experiment: Antiproliferative activity against human Huh-7 cells under 10 J/cm2 light irradiation at 660 nm by CCK8 assay. As to conditions: Huh-7, light or radiation study; call rule not given here. In kind it is functional, cell-based.
Series [2] has as its system MCF7. As to the kind of experiment: Antiproliferative activity against human MCF7 cells under 10 J/cm2 light irradiation at 660 nm by CCK8 assay. The format is functional, cell-based. As to conditions: MCF7, light or radiation study.
Series [3] is described as follows: Photostability of compound under 250 mW/cm2 light irradiation at 660 nm incubated for 10 mins by UV spectrophotometry. The format is physicochemical. Conditions: 0.66 µM.
Series [4] deals with MCF7. As to the kind of experiment: Antiproliferative activity against human MCF7 cells under dark condition by CCK8 assay. The format is functional, cell-based.
The subject of series [5] is HepG2. As to the kind of experiment: Antiproliferative activity against human HepG2 cells under 10 J/cm2 light irradiation at 660 nm by CCK8 assay. The format is functional, cell-based. As to conditions: HepG2, light or radiation study.
Series [6] is described as follows: Aggregation property of compound in PBS. In kind it is physicochemical. Conditions: buffer.
Series [7] in a line: Partition coefficient, logP of compound. In kind it is physicochemical. As to conditions: octanol/water.
Series [8] relates to HeLa. As to the kind of experiment: Antiproliferative activity against human HeLa cells under dark condition by CCK8 assay. In kind it is functional, cell-based.
Series [9] has as its system HepG2. As to the kind of experiment: Antiproliferative activity against human HepG2 cells under dark condition by CCK8 assay. In kind it is functional, cell-based.
Series [10] relates to Huh-7. As to the kind of experiment: Antiproliferative activity against human Huh-7 cells under dark condition by CCK8 assay. The format is functional, cell-based.
The nature of series [11]: Antiproliferative activity against human HUVEC cells under 10 J/cm2 light irradiation at 660 nm by CCK8 assay. In kind it is toxicity, cell-based.
Series [12] has as its system HeLa. As to the kind of experiment: Antiproliferative activity against human HeLa cells under 10 J/cm2 light irradiation at 660 nm by CCK8 assay. As to conditions: light or radiation study. In kind it is functional, cell-based.
The target in series [13] is chymotrypsin (Homo sapiens, UniProt P17538+P40313+Q6GPI1+Q99895). As to the kind of experiment: Stability of compound assessed as chymotrypsin (unknown origin)-mediated compound degradation in PBS at pH 7.4 by measuring half life. The format is ADME, protein assay.
The nature of series [14]: Antiproliferative activity against human HUVEC cells under dark condition by CCK8 assay. The format is toxicity, cell-based.

In the case of `C=Cc1c(C)c2cc3nc(c(CC(=O)O)c4[nH]c(cc5nc(cc1[nH]2)C(C)=C5CC)c(C)c4C(=O)NCCCC(=O)N[C@@H](CCCNC(=N)N)C(=O)N[C@@H](CC(C)C)C(=O)N[C@@H](CC(N)=O)C(=O)N[C@H](C(=O)NCC(=O)NCC(=O)N[C@H](C(=O)N[C@@H](Cc1ccc(O)cc1)C(=O)N[C@@H](Cc1ccccc1)C(=O)N[C@@H](CC(C)C)C(=O)N[C@H](C(=O)N[C@H](C(=O)N[C@@H](CCCNC(=N)N)C(=O)N[C@@H](CCC(N)=O)C(=O)O)[C@@H](C)O)[C@@H](C)O)[C@@H](C)O)C(C)C)[C@@H](CCC(=O)O)[C@@H]3C` (HELM PEPTIDE1{[C=Cc1c(C)c2cc3nc(c(CC(=O)O)c4[nH]c(cc5nc(cc1[nH]2)C(C)=C5CC)c(C)c4C(=O)[*:2])[C@@H](CCC(=O)O)[C@@H]3C].[O=C(CCCN[*:1])[*:2]].R.L.N.V.G.G.T.Y.F.L.T.T.R.Q}$$$$V2.0), the IC50 in series [1] is 250 nM; in series [2] it was 880 nM; in [4], greater than 100000 nM; in series [5] it was 310 nM; in series [8], greater than 100000 nM; in series [9], greater than 100000 nM. Besides, the IC50 in series [10] is greater than 100000 nM; in series [11], 2100 nM; in [12], 720 nM; in series [14] it was greater than 200000 nM. Moreover, the Stability entry in series [3] was “Stable”. The outcome in series [6] was Active. This molecule also yielded a logP in series [7] of 0.8. In addition, the half-life in series [13] was 2.4 h.
With H-DHLASLWWGTEL-OH, the half-life in series [13] was 1.1 h.
For `C=Cc1c(C)c2cc3nc(c(CC(=O)O)c4[nH]c(cc5nc(cc1[nH]2)C(C)=C5CC)c(C)c4C(=O)NCCCC(=O)N[C@@H](CC(=O)O)C(=O)N[C@@H](Cc1ccc(O)cc1)C(=O)N[C@@H](CCC(=O)O)C(=O)N[C@@H](CCSC)C(=O)N[C@@H](Cc1cnc[nH]1)C(=O)N[C@@H](CC(C)C)C(=O)N[C@@H](Cc1c[nH]c2ccccc12)C(=O)N[C@@H](Cc1c[nH]c2ccccc12)C(=O)NCC(=O)N[C@H](C(=O)N[C@@H](CCC(=O)O)C(=O)N[C@@H](CC(C)C)C(=O)O)[C@@H](C)O)[C@@H](CCC(=O)O)[C@@H]3C` (HELM PEPTIDE1{[C=Cc1c(C)c2cc3nc(c(CC(=O)O)c4[nH]c(cc5nc(cc1[nH]2)C(C)=C5CC)c(C)c4C(=O)[*:2])[C@@H](CCC(=O)O)[C@@H]3C].[O=C(CCCN[*:1])[*:2]].D.Y.E.M.H.L.W.W.G.T.E.L}$$$$V2.0), the IC50 in [1] was 1900 nM; in [2], 5300 nM; in series [4], greater than 200000 nM; in [5], 1700 nM; in series [8] it was greater than 200000 nM; in [9], greater than 200000 nM. For the same molecule, the IC50 in series [10] is greater than 200000 nM; in series [11], 9800 nM; in series [12] it was 4700 nM; in [14], greater than 200000 nM. Besides, the Stability result in [3] is “Stable”. In [6], the result was Active. The molecule further showed a logP in series [7] of 1.5. The half-life in series [13] is 1.3 h.
As to `C=Cc1c(C)c2cc3nc(c(CC(=O)O)c4[nH]c(cc5nc(cc1[nH]2)C(C)=C5CC)c(C)c4C(=O)NCCCC(=O)N[C@@H](CCCCN)C(=O)N[C@@H](CCCCN)C(=O)N[C@@H](CCCCN)C(=O)N[C@@H](CCCNC(=N)N)C(=O)N[C@@H](CC(C)C)C(=O)N[C@@H](CC(N)=O)C(=O)N[C@H](C(=O)NCC(=O)NCC(=O)N[C@H](C(=O)N[C@@H](Cc1ccc(O)cc1)C(=O)N[C@@H](Cc1ccccc1)C(=O)N[C@@H](CC(C)C)C(=O)N[C@H](C(=O)N[C@H](C(=O)N[C@@H](CCCNC(=N)N)C(=O)N[C@@H](CCC(N)=O)C(=O)O)[C@@H](C)O)[C@@H](C)O)[C@@H](C)O)C(C)C)[C@@H](CCC(=O)O)[C@@H]3C` (HELM PEPTIDE1{[C=Cc1c(C)c2cc3nc(c(CC(=O)O)c4[nH]c(cc5nc(cc1[nH]2)C(C)=C5CC)c(C)c4C(=O)[*:2])[C@@H](CCC(=O)O)[C@@H]3C].[O=C(CCCN[*:1])[*:2]].K.K.K.R.L.N.V.G.G.T.Y.F.L.T.T.R.Q}$$$$V2.0), the IC50 in [1] is 340 nM; in series [2], 790 nM; in series [4], greater than 200000 nM; in series [5], 330 nM; in series [8], greater than 200000 nM; in series [9] it was greater than 200000 nM. Moreover, the concentration for half-maximal inhibition (IC50) in series [10] is greater than 200000 nM; in series [11], 380 nM; in [12] it was 570 nM; in [14], greater than 200000 nM. For the same molecule, in series [3], the Stability entry was “Stable”. For the same molecule, in series [6], the Activity entry was “Not Active”. In [7], this molecule displayed a logP of -0.5. In series [13], the half-life was 1.3 h.
